Measurements as given in patent US6241963A, “Dopamine and serotonin transporter ligands and imaging agents” (priority 1996, dated 2001).
Entries after “also recorded” stand apart in the source; their conditions may differ.

Assays:
[1] = Partition coefficient between 1-octanol (n-octanol) and buffer; assay type: physicochemical
Experimental: (§1) Partition coefficients were measured by mixing each Tc-99m compound with 3 g each of 1-octanol and buffer (pH 7.0 or 7.4, 0.1 M phosphate) in a test tube. The test tube was vortexed for 3 minutes at room temperature, then centrifuged for 5 minutes. Two weighed samples (0.5 g each) from the 1-octanol and buffer layers were counted in a well counter. The partition coefficient was determined by calculating the ratio of cpm/g of octanol to that of buffer. Samples from the octanol layer were repartitioned until consistent partition coefficient values were obtained. The measurement was repeated 3 times.
as §1, with “The partition coefficient was measured” for “Partition coefficients were measured”, “mixing the” for “mixing each”, “3 min” for “3 minutes”

[2] = tested on: dopamine transporters; experiment: SPECT imaging in a baboon, co-registered with MRI; assay type: in vivo; details: 60-90 min post iv injection of 9 mCi
Experimental: A baboon (~15 kg) was the subject of a SPECT imaging study. Prior to imaging, the animal was fasted, immobilized with ketamine (10-20 mg/kg, i.m.) and xylazine (2-3 mg/kg, i.m.), intubated and maintained on a 1.5-2.0% isofluorane/98.5% oxygen mixture (flow rate of 200-500 cc/min). […] Body temperature was maintained using a hot water circulating heating pad and was monitored with a rectal thermometer. The animal's head was immobilized using a vacuum-packed bean-bag device that hardens upon evacuation when molded around the head. No-carrier-added [^99m Tc]TRODAT-1 (1.19a; 9 mCi) was administered as an intravenous bolus in the saphenous vein of the baboon. Immediately after injection, sequential 5 minute per frame dynamic SPECT scans were acquired on a triple-headed Picker Prism 3000 camera (FWHM: 7 mm) equipped with fan beam collimators for 2 hours. The acquisition parameters were a 20% energy window at 140 KeV, 120 projection angles over 360 degrees, a 128×128 matrix, and a zoom factor of 1.78 in a slice thickness of 2 mm. The projection data was reconstructed with a count dependent 3-D Wiener filter. Chang's first order correction method was used to compensate for attenuation. Magnetic resonance images (MRI) of the baboon brain were acquired with a 1.5 Tesla machine (GE Medical Systems, Milwaukee, Wis.). […]

[3] = target: dopamine transporters (Rattus norvegicus, UniProt P23977); experiment: In vitro autoradiography of rat brain sections; assay type: binding, Male Sprague-Dawley rats; details: rat brain coronal sections
Experimental: Male Sprague-Dawley rats ([…]) were sacrificed by decapitation, and the brains were removed, placed in OTC embedding medium (Miles Laboratory, Elkhart, Ind.) frozen in powdered dry ice. After equilibration to -15° C., 20 μm coronal sections were sliced on a cryostat (Hacker Instruments, Fairfield, N.J.), thaw mounted onto gelatin-coated slides, desiccated at 4° C. for 3 hours and kept at -70° C. until use. Prior to the experiment, the slides were dried at room temperature and preincubated for 30 minutes in buffer containing 50 mM Tris-HCl (pH 7.4, 120 mM NaCl). The slides were then incubated for 2 hours in preincubation buffer and the [^99m Tc] compound 3.25 (385,000 cpm/200 μL) in a coplan jar, washed for 1 hour in cold Tris buffer, with one change of buffer, dipped in ice-cold water to remove buffer salts and allowed to dry at room temperature. Nonspecific binding was determined in the presence of 1 μM IPT. These slides were simultaneously exposed to DuPont x-ray film in an autoradiographic cassette for 18 hours. The exposed film was developed with a Kodak automatic film processor.

[4] = rat, cited from earlier work

Sequence of dopamine transporters (Rattus norvegicus, UniProt P23977) (P23977 whole entry): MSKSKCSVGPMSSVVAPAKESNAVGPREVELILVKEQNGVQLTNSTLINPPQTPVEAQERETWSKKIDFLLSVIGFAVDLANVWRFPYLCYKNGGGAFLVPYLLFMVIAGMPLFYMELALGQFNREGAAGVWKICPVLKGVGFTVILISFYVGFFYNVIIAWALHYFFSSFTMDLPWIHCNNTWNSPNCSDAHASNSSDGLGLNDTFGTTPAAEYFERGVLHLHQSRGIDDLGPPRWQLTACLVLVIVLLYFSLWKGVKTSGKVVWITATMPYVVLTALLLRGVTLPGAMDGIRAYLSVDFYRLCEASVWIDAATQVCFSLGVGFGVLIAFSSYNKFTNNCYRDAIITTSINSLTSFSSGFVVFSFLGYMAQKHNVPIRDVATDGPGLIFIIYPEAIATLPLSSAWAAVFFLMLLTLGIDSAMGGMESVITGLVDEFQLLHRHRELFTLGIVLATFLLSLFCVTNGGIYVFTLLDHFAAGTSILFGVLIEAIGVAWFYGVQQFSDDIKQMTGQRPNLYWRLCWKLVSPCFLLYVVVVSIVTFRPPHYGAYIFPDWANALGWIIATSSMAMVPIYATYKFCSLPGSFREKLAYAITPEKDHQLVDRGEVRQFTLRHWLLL

| Compound | Partition coefficient (P.C.), 1-octanol/pH 7.0 buffer ([1]; 1-octanol/pH 7.0 phosphate buffer, listed as TRODAT-1) | SPECT localization in brain [2] | Partition coefficient / lipophilicity, comparison in words [1] | Partition coefficient, n-octanol/buffer ([1]; n-octanol/phosphate buffer (pH 7.0 or 7.4)) | Autoradiographic regional labeling [3] | Initial brain uptake at 2 minutes ([4]; 2 min post iv injection (Meegalla 1995)) [%] | ST/CB ratio at 60 minutes ([4]; 60 min after iv injection (Meegalla 1995)) |
| --- | --- | --- | --- | --- | --- | --- | --- |
| CN1[C@H]2CC[C@@H]1[C@@H](C[N+]13CC[S][99Tc-]14(=[O])[S]CC[N]4CC3)[C@@H](c1ccc(Cl)cc1)C2 (stereo partly shown) [Compound 1.19a] | 227 | excellent consistence with the expected localization of this agent in caudate and putamen areas; also recorded: A high accumulation | – | – | – | – | – |
| COC(=O)C1C(c2ccc(Cl)cc2)CC2CCC1N2CC[S][99Tc-]12(=[O])[S]CC[N+]1(C)CC[S]2 [Compound 3.25, [^99m Tc] technetium, [methyl 3-(4-chlorophenyl)-8-(2-mercaptoethyl)-8-azabicyclo [3.2.1]octane-2-carboxylato-S][[2,2'-(methylimino)bis[ethanethiolato]](2-)-N,S,S']oxo] | – | – | appears to be the best among this series of three plus one Tc complexes | 307 | elevated labeling in striatum, major islands of Calleja and olfactory tubercle regions; also recorded: intense labeling in caudate putamen and olfactory tubercle; also recorded: localized in caudate putamen and olfactory tubercle | 0.1 | 3.50 |
